# Assay results taken from PMC9395504 (Investigational New Drugs, 2022).
# Assays:
# p53 pathway = details: cited from earlier work
# [1] = Safety: adverse events by NCI-CTCAE v4.0, phase 1 study Part 1; assay type: in vivo, human
# Procedure: We defined the dose-limiting toxicity (DLT) period as the first 28 days of each dose-escalation cohort’s treatment cycle (DLT window). […] Non-hematologic DLTs included grade ≥3 nausea, vomiting, or diarrhea enduring >48 hours despite standard medical management, grade 3 fatigue persisting >7 days or grade 4 fatigue, any grade ≥3 metabolic laboratory abnormalities that are not controlled within 48 hours by standard medical management.
# [2] = All patients, N=31, attributed to AMG 232 only
# [3] = All patients, N=31, attributed to any drug
smiles,measurement,setting,value
CC(C)[C@@H](CS(=O)(=O)C(C)C)N1C(=O)[C@@](C)(CC(=O)O)C[C@H](c2cccc(Cl)c2)[C@H]1c1ccc(Cl)cc1 [AMG 232],doses with more consistent and pronounced effect on the p53 pathway,p53 pathway,25 to 100 mg/kg
same,lowest dose affecting the p53 pathway (upregulation of p21 and MIC-1),p53 pathway; doses as low as,5 mg/kg
same,Share of treatment-emergent AEs attributable to AMG 232,"[1]; 240 of 614 AEs, in 30 subjects",39%
same,AEs Grade 1,"[1]; All patients, N=31",31 (100) N (%)
same,AEs Grade 2,"[1]; All patients, N=31",30 (97) N (%)
same,AEs Grade 3,"[1]; All patients, N=31",25 (81) N (%)
same,AEs Grade 4,"[1]; All patients, N=31",2 (6) N (%)
same,AEs leading to AMG 232 d/c,"[1]; All patients, N=31",7 (23) N (%)
same,AEs leading to dabraf d/c,"[1]; All patients, N=31",2 (6) N (%)
same,Serious AE Adrenal insufficiency,"[1]; All patients, N=31",2 (6) N (%)
same,Serious AE Anemia,"[1]; All patients, N=31",1 (3) N (%)
same,Serious AE Cellulitis,"[1]; All patients, N=31",2 (6) N (%)
same,Serious AE Dehydration,"[1]; All patients, N=31",3 (10) N (%)
same,Serious AE Diarrhea,"[1]; All patients, N=31",4 (13) N (%)
same,Serious AE Fatigue,"[1]; All patients, N=31",1 (3) N (%)
same,Serious AE Hypotension,"[1]; All patients, N=31",1 (3) N (%)
same,Serious AE Nausea,"[1]; All patients, N=31",5 (16) N (%)
same,Serious AE Peripheral Edema,"[1]; All patients, N=31",1 (3) N (%)
same,Serious AE Pulmonary embolism,"[1]; All patients, N=31",5 (16) N (%)
same,Serious AE Pyrexia,"[1]; All patients, N=31",5 (16) N (%)
same,Serious AE Seizure,"[1]; All patients, N=31",3 (10) N (%)
same,Serious AE Thrombocytopenia,"[1]; All patients, N=31",1 (3) N (%)
same,Serious AE Vomiting,"[1]; All patients, N=31",5 (16) N (%)
same,AE AST increased,[1]; [2],3 (10) N (%)
same,AE Abdominal pain,[1]; [2],5 (16) N (%)
same,AE Adrenal insufficiency,[1]; [2],0 N (%)
same,AE Anemia,[1]; [2],5 (16) N (%)
same,AE Cellulitis,[1]; [2],0 N (%)
same,AE Chills,[1]; [2],2 (6) N (%)
same,AE Cough,[1]; [2],2 (6) N (%)
same,AE Decreased appetite,[1]; [2],13 (42) N (%)
same,AE Dehydration,[1]; [2],1 (3) N (%)
same,AE Dermatitis acneiform,[1]; [2],3 (10) N (%)
same,AE Diarrhea,[1]; [2],24 (77) N (%)
same,AE Dizziness,[1]; [2],3 (10) N (%)
same,AE Dry mouth,[1]; [2],3 (10) N (%)
same,AE Dysgeusia,[1]; [2],4 (13) N (%)
same,AE Dyspepsia,[1]; [2],3 (10) N (%)
same,AE Fatigue,[1]; [2],23 (74) N (%)
same,AE Headache,[1]; [2],3 (10) N (%)
same,AE Hypertension,[1]; [2],2 (6) N (%)
same,AE Hypotension,[1]; [2],1 (3) N (%)
same,AE Lipase increased,[1]; [2],4 (13) N (%)
same,AE Malaise,[1]; [2],4 (13) N (%)
same,AE Nausea,[1]; [2],27 (87) N (%)
same,AE Neutropenia,[1]; [2],3 (10) N (%)
same,AE Peripheral Edema,[1]; [2],1 (3) N (%)
same,AE Pruritus,[1]; [2],0 N (%)
same,AE Pulmonary embolism,[1]; [2],2 (6) N (%)
same,AE Pyrexia,[1]; [2],2 (6) N (%)
same,AE Rash,[1]; [2],2 (6) N (%)
same,AE Seizure,[1]; [2],0 N (%)
same,AE Thrombocytopenia,[1]; [2],3 (10) N (%)
same,AE Vomiting,[1]; [2],21 (68) N (%)
same,AE AST increased,[1]; [3],6 (19) N (%)
same,AE Abdominal pain,[1]; [3],6 (19) N (%)
same,AE Adrenal insufficiency,[1]; [3],2 (6) N (%)
same,AE Anemia,[1]; [3],9 (29) N (%)
same,AE Cellulitis,[1]; [3],2 (6) N (%)
same,AE Chills,[1]; [3],8 (26) N (%)
same,AE Cough,[1]; [3],8 (26) N (%)
same,AE Decreased appetite,[1]; [3],16 (52) N (%)
same,AE Dehydration,[1]; [3],9 (29) N (%)
same,AE Dermatitis acneiform,[1]; [3],14 (45) N (%)
same,AE Diarrhea,[1]; [3],27 (87) N (%)
same,AE Dizziness,[1]; [3],5 (16) N (%)
same,AE Dry mouth,[1]; [3],5 (16) N (%)
same,AE Dysgeusia,[1]; [3],6 (19) N (%)
same,AE Dyspepsia,[1]; [3],4 (13) N (%)
same,AE Fatigue,[1]; [3],25 (81) N (%)
same,AE Headache,[1]; [3],15 (48) N (%)
same,AE Hypertension,[1]; [3],8 (26) N (%)
same,AE Hypotension,[1]; [3],8 (26) N (%)
same,AE Lipase increased,[1]; [3],5 (16) N (%)
same,AE Malaise,[1]; [3],4 (13) N (%)
same,AE Nausea,[1]; [3],28 (90) N (%)
same,AE Neutropenia,[1]; [3],5 (16) N (%)
same,AE Peripheral Edema,[1]; [3],13 (42) N (%)
same,AE Pruritus,[1]; [3],11 (35) N (%)
same,AE Pulmonary embolism,[1]; [3],5 (16) N (%)
same,AE Pyrexia,[1]; [3],11 (35) N (%)
same,AE Rash,[1]; [3],7 (23) N (%)
same,AE Seizure,[1]; [3],3 (10) N (%)
same,AE Thrombocytopenia,[1]; [3],7 (23) N (%)
same,AE Vomiting,[1]; [3],22 (71) N (%)
same,"AMG 232-related AE abdominal pain, patients",[1]; all 31 patients,16%
same,"AMG 232-related AE anemia, patients",[1]; all 31 patients,16%
same,"AMG 232-related AE decreased appetite, patients",[1]; all 31 patients,42%
same,"AMG 232-related AE diarrhea, patients",[1]; all 31 patients,77%
same,"AMG 232-related AE dysgeusia, patients",[1]; all 31 patients,13%
same,"AMG 232-related AE fatigue, patients",[1]; all 31 patients,74%
same,"AMG 232-related AE increased lipase, patients",[1]; all 31 patients,13%
same,"AMG 232-related AE malaise, patients",[1]; all 31 patients,13%
same,"AMG 232-related AE nausea, patients",[1]; all 31 patients,87%
same,"AMG 232-related AE vomiting, patients",[1]; all 31 patients,68%
same,Patients with serious AMG 232-related AEs,[1]; all 31 patients,8 patients
same,"Serious AMG 232-related AE diarrhea, patients",[1]; all 31 patients,10%
same,"Serious AMG 232-related AE nausea, patients",[1]; all 31 patients,13%
same,"Serious AMG 232-related AE pulmonary embolism, patients",[1]; all 31 patients,6.5%
same,"Serious AMG 232-related AE vomiting, patients",[1]; all 31 patients,10%
same,"SAE diarrhea, patients","[1]; all 31 patients, AMG 232 + T±D",13%
same,"SAE nausea, patients","[1]; all 31 patients, AMG 232 + T±D",16%
same,"SAE vomiting, patients","[1]; all 31 patients, AMG 232 + T±D",16%
same,"Treatment-emergent AE acneiform dermatitis, patients","[1]; all 31 patients, AMG 232 + T±D",45%
same,"Treatment-emergent AE decreased appetite, patients","[1]; all 31 patients, AMG 232 + T±D",52%
same,"Treatment-emergent AE diarrhea, patients","[1]; all 31 patients, AMG 232 + T±D",87%
same,"Treatment-emergent AE fatigue, patients","[1]; all 31 patients, AMG 232 + T±D",81%
same,"Treatment-emergent AE headache, patients","[1]; all 31 patients, AMG 232 + T±D",48%
same,"Treatment-emergent AE nausea, patients","[1]; all 31 patients, AMG 232 + T±D",90%
same,"Treatment-emergent AE peripheral edema, patients","[1]; all 31 patients, AMG 232 + T±D",42%
same,"Treatment-emergent AE pruritus, patients","[1]; all 31 patients, AMG 232 + T±D",35.5%
same,"Treatment-emergent AE pyrexia, patients","[1]; all 31 patients, AMG 232 + T±D",35.5%
same,"Treatment-emergent AE vomiting, patients","[1]; all 31 patients, AMG 232 + T±D",71%
same,Patients with serious AEs (SAEs),"[1]; all 31 patients, AMG 232 + T±D, 24 patients",77%
same,Patients withdrawn/discontinued from AMG 232 due to AEs,"[1]; all 31 patients, seven patients",23%
